Data as given in patent US20180055797A1, “NON-RACEMIC KETONE SALTS FOR RAPID-ONSET NUTRITIONAL KETOSIS AND METABOLIC THERAPY” (KetoneAid Inc., priority 2016, published 2018).

Legend:
[1] = cited from earlier work
[2] = Ketone blood concentration after ingestion of 1,3-butanediol (FIG. 2, FIG. 3); assay type: in vivo, person; details: for increase in ketones over pre consumption ketone levels: one person (D), two people racemic
Description: FIG. 2 depicts an exemplary ketone blood concentration after ingestion of racemic 1,3-butanediol.
FIG. 3 depicts a ketone blood concentration after one person ingested (D) 1,3-butanediol, compared to the results of two people ingesting racemic 1,3-butanediol.
It should also be noted that only the D enantiomer is active in the body as a source of extracellular fuel that is then transported into the cells. Ketone blood level meters currently on the market only measure the blood level of the D enantiomer. Products containing racemic salts require two to three times the amount of sodium, calcium and potassium for an equal amount of D-β-hydroxybutyrate readings in the blood. A reason the potential levels of D-β-hydroxybutyrate in the blood is over double with chiral solutions is because the body has to waste energy and uses up some of the D-β-hydroxybutyrate to burn off the unnatural L-O-hydroxybutyrate.
FIG. 2 depicts exemplary results from ingestion of 33 ml racemic 1,3-butanediol. […] For example, as shown, the chiral form provided an increase in ketones of approximately 3.2 mmol/L whereas the racemic form provided approximately 0.9-1.0 mmol/L increases over pre consumption ketone levels.

CC(O)CC(=O)[O-].[K+] (racemic) [racemic potassium β-hydroxybutyrate, potassium β-hydroxybutyrate]
ketones level a person would be limited to reaching ([1]; consuming at about 100% of potassium's RDA): approximately 0.5 mmol/L

CC(O)CCO (stereo not drawn) [(D)-1,3-butanediol]
D-β-hydroxybutyrate in the blood, (D) relative to racemic 1,3-butanediol ([2]; 33 ml of each, FIG. 3): over double | increase in ketones over pre consumption ketone levels ([2]; ingestion of 33 ml, FIG. 3): approximately 3.2 mmol/L

CC(O)CC(=O)[O-].[Na+] (racemic) [racemic sodium β-hydroxybutyrate, sodium β-hydroxybutyrate]
ketones level a person would be limited to ([1]; consuming at about 100-200% of the RDA for sodium): approximately 0.5 mmol/L

CC(O)CCO (racemic) [racemic 1,3-butanediol, 1,3-butanediol]
increase in ketones over pre consumption ketone levels ([2]; ingestion of 33 ml, FIG. 3): 0.9 to 1.0 mmol/L | ketone blood concentration achieved ([2]; ingestion of 33 ml, over a 105-minute period, FIG. 2): ≤ 1 mmol/L
